Measured values reported in the SangsterLogP compilation.

logP	Structure (SMILES)
2.01	COC1(NC(=O)C2SC(C(C(=O)O)C(=O)N(C)C)S2)C(=O)N2C(C(=O)O)=C(CSc3nnnn3C)CSC21 (stereo unspecified)
1.82	CNC(=O)C(C(=O)O)=C1SC(C(=O)NC2(OC)C(=O)N3C(C(=O)O)=C(CSc4nnnn4C)CSC32)S1 (stereo unspecified)
2.6	COC1(NC(=O)C2SC(=C(SC)C(=O)O)S2)C(=O)N2C(C(=O)O)=C(CSc3nnnn3C)CSC21 (stereo unspecified)
2.19	COC1(NC(=O)C2SC(=CC(=O)O)S2)C(=O)N2C(C(=O)O)=C(CSc3nnnn3C)CSC21 (stereo unspecified)
1.25	COC1(NC(=O)C2SC(=C(C(=O)O)S(N)(=O)=O)S2)C(=O)N2C(C(=O)O)=C(CSc3nnnn3C)CSC21 (stereo unspecified)
2.98	COC1(NC(=O)C2SC(C(C(=O)O)C(=O)c3ccccc3)S2)C(=O)N2C(C(=O)O)=C(CSc3nnnn3C)CSC21 (stereo unspecified)

The remaining lines, values behind:

Structure (SMILES)	logP
COC(C(=O)O)=C1SC(C(=O)NC2(OC)C(=O)N3C(C(=O)O)=C(CSc4nnnn4C)CSC32)S1 (stereo unspecified)	2
CCSC(C(=O)O)=C1SC(C(=O)NC2(OC)C(=O)N3C(C(=O)O)=C(CSc4nnnn4C)CSC32)S1 (stereo unspecified)	2.86
COC1(NC(=O)C2SC(=C(C)C(=O)O)S2)C(=O)N2C(C(=O)O)=C(CSC3=NN=NN(C)C3)CSC21 (stereo unspecified)	2.66
COC1(NC(=O)CSc2snc(O)c2C(=O)O)C(=O)N2C(C(=O)O)=C(CSc3nnnn3C)CSC21 (stereo unspecified)	1.43
COC1(NC(=O)C2SC(=C(C#N)C(=O)O)S2)C(=O)N2C(C(=O)O)=C(CSc3nnnn3C)CSC21 (stereo unspecified)	1.73
